According to patent US20030077576A1, “Use of monoclonal antibodies and functional assays for prediction of risk of opportunistic infection” (priority 2001, published 2003):

How the values were obtained:
Type in all cases: cell-based, human
monocyte VLA-5 (CD49e) = details: for log fluorescence intensity for VLA-5 (CD49e stained with mAb SAM-1) in the CD14+ (monocyte) population, FN120: 2 μM FN120 for 2 h in the presence of the protease inhibitor; for log fluorescence intensity for VLA-5 (CD49e stained with mAb SAM-1) in the CD14+ (monocyte) population, FN120 / log fluorescence intensity for VLA-5 (CD49e stained with mAb SAM-1) in the CD14+ (monocyte) population, No Rx: 0.2 mM PMSF, 2 mM CdCl2, 40 μM bestatin, 10 μM 1,10 phenanthroline, 0.1 mM EGTA, mean ± SEM, three donors; for log fluorescence intensity for VLA-5 (CD49e stained with mAb SAM-1) in the CD14+ (monocyte) population, No Rx: protease inhibitor alone, no FN120, 2 h
Protocol: Briefly, heparinized blood was distributed in 0.1-ml aliquots into polypropylene tubes for incubation with saturating concentrations of primary or secondary antibodies at 4° C. for 30 min. Incubations were separated by two washes with ice-cold Dulbecco's PBS (Gibco Laboratories, Grand Island, N.Y.). FITC-conjugated sheep anti-mouse Ig was used at a dilution of 1:120. PE-conjugated anti-CD14 (clone 116, Beckman Coulter), added after the secondary antibody, was used according to the manufacturer's directions. After leukocytes were stained and washed, red cells were lysed with FACS Lysing Solution (Becton Dickinson). Leukocytes were washed again, fixed in 1% paraformaldehyde, and analyzed by flow cytometry the day of the experiment. […] Total white blood cell (Coulter Counter, Coulter Electronics, Hialeah, Fla.) and differential counts were measured in aliquots of the same blood samples used for immunofluorescence studies. Tests of control blood donors were randomly interspersed among patient samples.
Flow cytometry was performed on an Epics Profile 1 with three fluorescence channels (Coulter Cytometry, Hialeah, Fla.) that has an argon laser tuned to 488 nm. Daily alignment and calibration of the instrument was performed with DNA-check and Standard-Brite fluorescent beads (Coulter). Green (FL1), orange (FL2), and red (FL3) fluorescence signals are measured on a four-decade logarithmic scale. Linearity of log fluorescence intensity was checked with Immuno-Brite fluorescent beads. Appropriate compensations for spectral overlap between the three channels is carried out prior to calculating data. The mean intensity of fluorescence, measured on a 4 decade logarithmic scale, was converted to a linear scale, using a 256 channel histogram, to give a mean channel number, also known as the mean channel fluorescence (MCF). This was used to estimate the average fluorescence emission of cells reactive with specific monoclonal antibodies. Cell surface display of specific mAbs were precisely delineated when necessary by means of quantitative flow cytometry, using the Quantum Simply Cellular Microbeads Kit from Sigma BioSciences, St. Louis, Mo. This kit contained four bead populations that bind graduated quantities of antibodies per bead. […] By interpolation, this standard curve was used to accurately estimate the quantity of antibody bound to other cellular targets. Leukocytes were initially selected for fluorescence analysis by a combination of right-angle and low angle forward light scatter. Two color fluorescence, with PE conjugated anti-CD14 as a qualifier was used specifically to identify monocytes, and anti-CD3 to identify T lymphocytes. Other lymphoid elements were identified, as required, by using appropriate direct antibody conjugates. At least 2500 monocytes were counted in each sample. Fluorescence measurements from isotype controls were subtracted from data obtained with all reported antibodies.
To determine how fragments of fibronectin might affect VLA-5 expression, the effect of adding purified 120 kD and 40 kD fragments of fibronectin to heparin-anticoagulated whole blood from normal donors was measured. The 120 kD fragment has an RGD motif and binds to VLA-5 on cells.

U937 monocytoid cells = test: FN120 treatment of U937 monocytoid cells: proteinase-3 expression and VLA-5 shedding; details: U937 cells treated with FN120
Source text: To further investigate how FN120 causes VLA-5 shedding, U937 monocytoid cells were studied. These display greater quantities of VLA-5 than blood monocytes. They also display the serine protease, proteinase-3, when activated (Rao et al., 1996). U937 cells were washed repeatedly, to remove exogenous fibronectin and serum proteases, and resuspended in serum-free medium for treatment with FN120. […] Treating the cells with polyclonal anti-proteinase-3 or serine proteinase inhibitors such as alpha-antitrypsin blocked proteinase-3 activity. Blocking proteinase-3 activity with either agent prevented hydrolysis and release of VLA-5 molecules that are otherwise shed when U937 cells are incubated with FN120 as shown in FIG. 11.

CD14+ monocytes = test: Monocyte migration into collagenous matrices with or without native fibronectin; details: 4 hrs at 37° C., pads impregnated with full-length 220 kD native fibronectin
Protocol: Briefly, monocytes were incubated with collagenous matrices, half of which had been impregnated with full-length 220 kD native fibronectin. After 4 hrs contact at 37° C., unbound MNLs were washed away. The pads were dissolved with collagenase to recover and count the cells that had migrated into the matrix (Birdsall et al., 1997).

| Molecule | log fluorescence intensity for VLA-5 (CD49e stained with mAb SAM-1) in the CD14+ (monocyte) population, FN120 (monocyte VLA-5 (CD49e)) | log fluorescence intensity for VLA-5 (CD49e stained with mAb SAM-1) in the CD14+ (monocyte) population, No Rx (monocyte VLA-5 (CD49e)) | other results |
| --- | --- | --- | --- |
| c1cnc2c(c1)ccc1cccnc12 [1,10 phenanthroline] | 3.1 ± 0.6 | 4.9 ± 0.6 | – |
| O=CC[C@@H](O)[C@H](O)[C@H](O)CO [2-deoxyglucose] | – | – | loss of VLA-5 with 120 kD fibronectin fragments when cellular metabolism is inhibited (monocyte VLA-5 (CD49e); 2-deoxyglucose and sodium azide together, with 120 kD fibronectin fragments): failed to occur |
| [Cl][Cd][Cl] [CdCl2] | 2.2 ± 0.3 | 4.7 ± 0.5 | – |
| O=C(O)CN(CCOCCOCCN(CC(=O)O)CC(=O)O)CC(=O)O [EGTA] | 2.8 ± 0.6 | 5.1 ± 0.3 | – |
| O=S(=O)(F)Cc1ccccc1 [PMSF, phenylmethylsulfonylfluoride] | 5.8 ± 0.7 | 5.4 ± 0.5 | – |
| CC(C)C[C@H](NC(=O)[C@@H](O)[C@H](N)Cc1ccccc1)C(=O)O [bestatin] | 2.4 ± 0.5 | 4.9 ± 0.3 | – |
| alpha-antitrypsin: serine proteinase inhibitor | – | – | proteinase-3 activity (U937 monocytoid cells): blocked |
| fibronectin | – | – | CD14+ monocytes accumulated in fibronectin-containing pads versus plain collagen pads (CD14+ monocytes): three times as many |
